US20260226054A1, “CRYSTAL FORM AND AMORPHOUS SUBSTANCE OF INDOLINE SPIRO COMPOUND, AND PREPARATION METHOD THEREFOR AND USE THEREOF” (CHANGCHUN GENESCIENCE PHARMACEUTICAL CO., LTD., priority 2022, published 2026)
Converted amounts (≈) assume the structure as drawn.

Legend:
Type in all cases: physicochemical
[1] = Solubility test of crystal form (room temperature); conditions: thermodynamic from solid
Procedure: About 5 mg of the crystal form sample was weighed and placed in an 8 mL glass bottle, and solvent was gradually added at room temperature. 10 μL of solvent was added each time until all solids were dissolved, and if 5 mL of solvent was added and the solids were not dissolved, the solvent addition was stopped.

[2] = Long-term stability test, packaged crystal form (Table 7); conditions: 30±2° C./65±5% RH
Excerpt: (§1) Packaging requirements: it is needed to simulate commercially available packaging for the stability sample, the two inner layers are inner flat-bottom bags made of pharmaceutical polyethylene, the first layer of inner bag is tied and sealed, the second layer of inner bag is subjected to heat sealing, an aluminum foil bag at an outer layer is subjected to heat sealing, a package of desiccant is placed between the aluminum foil bag and the second layer of inner bag, and the package is placed in a fiber can.
The sample was taken in the 0th, 3rd and 6th months. The test items, test methods and technical requirements are detailed in Table 7, and the test results are compared with those in the 0th month.

[3] = Accelerated stability test of crystal form (Example 3, 40±2° C./75±5% RH)
Procedure: The sample was taken at 0th, 1st and 3rd month for analysis, the stability of the samples was determined by liquid phase, and the crystal form was determined by XRPD.

[4] = Accelerated stability test, packaged crystal form (Table 6); conditions: 40 ± 2° C./75 ± 5% RH
Excerpt: as §1
The sample was taken in the 0th, 1st, 2nd, 3rd and 6th months. The test items, test methods and technical requirements are detailed in Table 6, and the test results are compared with those in the 0th month.

[5] = Stability Test 1 (80° C., lighting, 25° C./60% RH, 40° C./75% RH; HPLC)
Procedure: • Chromatographic conditions: • Chromatographic column: C18 column; • Running time: 60 min; • UV detector: 210 nm; • Flow rate: 1.0 mL/min; • Injection volume: 5 μL.
A certain amount of crystals and amorphous raw materials were weighed and placed in liquid phase vials, and a total of 5 parts were prepared. The 5 parts were respectively placed under 80° C. (opened), 25° C./60% RH (opened), and 40° C./75% RH (opened) and in a stable lighting chamber (closed, 5000±500 Lx), and the stability under lighting for 10 days, 80° C. 1 day, and the chemical stability under 25° C. and 60% RH and under 40° C. and 75% RH for 1 week were determined by liquid phase, and the XRPD of the solid was determined.

[6] = Dynamic vapor sorption (DVS) hygroscopicity
Procedure: The sample was analyzed through Intrinsic DVS ([…]). The amount of test sample was about 20-30 mg. The temperature of a test room was controlled between 25±1° C., the relative humidity increased from 0% to 90% and then decreased to 0% at a rate of 10%/h, and mass data was recorded every 20 s.
The DVS curve was acquired from DVS Intrinsic through an SMS (Surface Measurement Systems). The relative humidity at 25° C. was calibrated according to deliquescent points of LiCl, Mg(NO3)2 and KCl.

[7] = 25° C., 60% RH (opened), 1 week
[8] = 40° C., 75% RH (opened), 1 week
[9] = Lighting (closed, 5000±500 Lx), 10 Days

## CC(C)C(=O)O[C@@H](C)OC(=O)NC(C)(C)C(=O)N[C@H](COCc1ccccc1)C(=O)N1CCC2(CC1)CN(S(C)(=O)=O)c1ccccc12 [crystal form, (4R,11R)-7,7-dimethyl-4-(1-(methylsulfonyl)spiro[indoldoline-3,4′-piperidine]-1′-carbonyl)-6,9-dioxo-1-phenyl-2,10-dioxa-5,8-diazadodecane-11-ylisobutyrate]
[1]; organic solvent or mixture, Acetone
  solubility: ~117 mg/mL (≈ 170 mM)
[1]; organic solvent or mixture, Acetonitrile
  solubility: ~128 mg/mL (≈ 186 mM)
[1]; organic solvent or mixture, Dichloromethane
  solubility: ~251 mg/mL (≈ 365 mM)
[1]; organic solvent or mixture, Ethanol
  solubility: ~20.9 mg/mL (≈ 30.4 mM)
[1]; organic solvent or mixture, Ethyl acetate
  solubility: ~133 mg/mL (≈ 193 mM)
[1]; organic solvent or mixture, Methyl tert-butyl ether
  solubility: ~0.7 mg/mL (≈ 1.02 mM)
[1]; organic solvent or mixture, N-heptane
  solubility: < 0.6 mg/mL
[1]; organic solvent or mixture, Tetrahydrofuran
  solubility: ~232 mg/mL (≈ 339 mM)
[1]; organic solvent or mixture, Toluene
  solubility: ~13.2 mg/mL (≈ 19.2 mM)
[1]; Water
  solubility: < 0.7 mg/mL
[2]; 0th month
  Characters: White powder
  Conclusion: Qualified
  Content (anhydrous and insoluble residue)/HPLC: 99.4%
  Isomer/HPLC: Chiral purity: 100.0%
  Isomer/HPLC: Isomer 1: 0.05%
  Moisture: 0.2%
  Related substance/HPLC: Impurity 3: <0.05%
  Related substance/HPLC: Other impurities: 0.05%
  Related substance/HPLC: Total impurities: 0.05%
[2]; 3rd month
  Characters: White powder
  Conclusion: Qualified
  Content (anhydrous and insoluble residue)/HPLC: 99.9%
  Isomer/HPLC: Chiral purity: 99.9%
  Isomer/HPLC: Isomer 1: 0.06%
  Moisture: 0.1%
  Related substance/HPLC: Impurity 3: <0.05%
  Related substance/HPLC: Other impurities: 0.05%
  Related substance/HPLC: Total impurities: 0.05%
[2]; 6 months vs 0th month
  Stability under the long-term condition: stable
[2]; 6th month
  Characters: White powder
  Conclusion: Qualified
  Content (anhydrous and insoluble residue)/HPLC: 99.6%
  Isomer/HPLC: Chiral purity: 100.0%
  Isomer/HPLC: Isomer 1: 0.03%
  Moisture: 0.1%
  Related substance/HPLC: Impurity 3: <0.05%
  Related substance/HPLC: Other impurities: <0.05%
  Related substance/HPLC: Total impurities: <0.05%
[2]; 6th month vs 0th month
  New impurity peak: ≤ 0.10%
[3]; 1 month
  Total impurities (%): 0.07%
[3]; 3 months
  Total impurities (%): 0.05%
[3]; Initial
  Total impurities (%): 0.07%
[4]; 0th month
  Conclusion: Qualified
  Content (anhydrous and insoluble residue)/HPLC: 99.4%
  Isomer/HPLC: Chiral purity: 100.0%
  Isomer/HPLC: Isomer 1: 0.05%
  Moisture: 0.2%
  Related substances/HPLC: Impurity 3: <0.05%
  Related substances/HPLC: Other impurities: 0.05%
  Related substances/HPLC: Total impurities: 0.05%
[4]; 1st month
  Conclusion: Qualified
  Content (anhydrous and insoluble residue)/HPLC: 99.0%
  Isomer/HPLC: Chiral purity: 100.0%
  Isomer/HPLC: Isomer 1: 0.04%
  Moisture: 0.1%
  Related substances/HPLC: Impurity 3: <0.05%
  Related substances/HPLC: Other impurities: 0.05%
  Related substances/HPLC: Total impurities: 0.05%
[4]; 2nd month
  Conclusion: Qualified
  Content (anhydrous and insoluble residue)/HPLC: 98.9%
  Isomer/HPLC: Chiral purity: 100.0%
  Isomer/HPLC: Isomer 1: 0.04%
  Moisture: 0.2%
  Related substances/HPLC: Impurity 3: <0.05%
  Related substances/HPLC: Other impurities: 0.05%
  Related substances/HPLC: Total impurities: 0.05%
[4]; 3rd month
  Conclusion: Qualified
  Content (anhydrous and insoluble residue)/HPLC: 98.9%
  Isomer/HPLC: Chiral purity: 100.0%
  Isomer/HPLC: Isomer 1: 0.04%
  Moisture: 0.1%
  Related substances/HPLC: Impurity 3: <0.05%
  Related substances/HPLC: Other impurities: <0.05%
  Related substances/HPLC: Total impurities: <0.05%
[4]; 6 months vs 0th month
  Stability under the accelerated condition: stable
[4]; 6th month
  Conclusion: Qualified
  Content (anhydrous and insoluble residue)/HPLC: 99.5%
  Isomer/HPLC: Chiral purity: 100.0%
  Isomer/HPLC: Isomer 1: 0.04%
  Moisture: 0.1%
  Related substances/HPLC: Impurity 3: <0.05%
  Related substances/HPLC: Other impurities: <0.05%
  Related substances/HPLC: Total impurities: <0.05%
[4]; 6th month vs 0th month
  New impurity peak: ≤ 0.10%
[5]; [7]
  Degradation (%): 0.02%
  Purity (%): 99.69%
[5]; [8]
  Degradation (%): 0.1%
  Purity (%): 99.61%
[5]; 80° C. (opened), 1 Day
  Degradation (%): 0.12%
  Purity (%): 99.59%
[5]; Initial
  Purity (%): 99.71%
[5]; [9]
  Degradation (%): 0.35%
  Purity (%): 99.36%
[6]; 25° C./80% RH
  Moisture adsorption (DVS): 0.10%
[6]; 80% humidity, 25° C.
  Hygroscopicity (DVS): almost had no hygroscopicity
[6]; XRPD before vs after DVS
  Solid form by XRPD before and after DVS test: the crystal form did not vary
